Test results published in article PMC11995724, “Antibiotic target discovery by integrated phenotypic and activity-based profiling of electrophilic fragments” (Cell chemical biology, 2025).

Experiment: in vitro
Settings: human, hek293t cells

Row | Compound | viability at 48 h, 25 µM [%]
1 | CC(Cl)C(=O)NC1COc2ccc(F)cc21 (centres unmarked) [7-A17, 2-chloro-N-(5-fluoro-2,3-dihydro-1-benzofuran-3-yl)propanamide] | 74
2 | CC(Cl)C(=O)N1CCC(Oc2ccc(C3CC3)cn2)C1 (centres unmarked) [7-A18, 2-chloro-1-{3-[(5-cyclopropylpyridin-2-yl)oxy]pyrrolidin-1-yl}propan-1-one] | 60.4
3 | Cc1nnnn1CCNC(=O)C(C)Cl (centres unmarked) [7-A19, 2-chloro-N-[2-(5-methyl-1H-1,2,3,4-tetrazol-1-yl)ethyl]propanamide] | 79
4 | CC(Cl)C(=O)N1CC(C(=O)N2CCN(C)CC2)Oc2ccccc21 (centres unmarked) [7-A20, 2-chloro-1-[2-(4-methylpiperazine-1-carbonyl)-3,4-dihydro-2H-1,4-benzoxazin-4-yl]propan-1-one] | 77.1
5 | Cc1ccc(NC(=O)N2CCN(C(=O)C(C)Cl)CC2)cc1Cl (centres unmarked) [7-A21, N-(3-chloro-4-methylphenyl)-4-(2-chloropropanoyl)piperazine-1-carboxamide] | 70.8
6 | CC(Cl)C(=O)N1CCCC1c1cccc(N(C)C)c1 (centres unmarked) [7-A22, 2-chloro-1-{2-[3-(dimethylamino)phenyl]pyrrolidin-1-yl}propan-1-one] | 68.7
7 | Cc1nn(-c2ccccc2)c(C)c1CN(C)C(=O)CCl [7-B03, 2-chloro-N-[(3,5-dimethyl-1-phenyl-1H-pyrazol-4-yl)methyl]-N-methylacetamide] | 0.804
8 | O=C(CCl)NC1CCCc2nc(-c3ccccc3)sc21 (centres unmarked) [7-B04, 2-chloro-N-(2-phenyl-4,5,6,7-tetrahydro-1,3-benzothiazol-7-yl)acetamide] | 0.382
9 | Cc1noc(C)c1CN(C(=O)CCl)C1CC1 [7-B05, 2-chloro-N-cyclopropyl-N-[(3,5-dimethyl-1,2-oxazol-4-yl)methyl]acetamide] | 0.0855
10 | O=C(CCl)NCc1nn(-c2ccccc2)c2c1CCC2 [7-B06, 2-chloro-N-({1-phenyl-1H,4H,5H,6H-cyclopenta[c]pyrazol-3-yl}methyl)acetamide] | 0.565
11 | Cc1nc2cc(=O)[nH]n2c(C)c1CNC(=O)C(C)Cl (centres unmarked) [7-B07, 2-chloro-N-({5,7-dimethyl-2-oxo-1H,2H-pyrazolo[1,5-a]pyrimidin-6-yl}methyl)propanamide] | 96.1
12 | O=C(CCl)NCC1CCN(C(=O)Cc2ccccc2)C1 (centres unmarked) [7-B08, 2-chloro-N-{[1-(2-phenylacetyl)pyrrolidin-3-yl]methyl}acetamide] | 0.975
13 | Cc1ccc(C2OCCCC2CNC(=O)C(C)Cl)cc1 (centres unmarked) [7-B09, 2-chloro-N-{[2-(4-methylphenyl)oxan-3-yl]methyl}propanamide] | 91.9
14 | CN1C(=O)c2ccccc2C1CNC(=O)CCl (centres unmarked) [7-B10, 2-chloro-N-[(2-methyl-3-oxo-2,3-dihydro-1H-isoindol-1-yl)methyl]acetamide] | 4.11
15 | CC(Cl)C(=O)N1CCCC1c1nccc(C(F)(F)F)n1 (centres unmarked) [7-B11, 2-chloro-1-{2-[4-(trifluoromethyl)pyrimidin-2-yl]pyrrolidin-1-yl}propan-1-one] | 106
16 | O=C(CCl)NCC(=O)N(c1ccccc1)c1ccccc1 [7-B12, 2-chloro-N-[(diphenylcarbamoyl)methyl]acetamide] | 1.21
17 | Cc1cc(N2CCCC(NC(=O)C(C)Cl)C2=O)n(C)n1 (centres unmarked) [7-B13, 2-chloro-N-[1-(1,3-dimethyl-1H-pyrazol-5-yl)-2-oxopiperidin-3-yl]propanamide] | 95.8
18 | O=C(CCl)NC1CCCOc2c(F)cccc21 (centres unmarked) [7-B14, 2-chloro-N-(9-fluoro-2,3,4,5-tetrahydro-1-benzoxepin-5-yl)acetamide] | 0.886
19 | CCc1nsc(N2CCCN(C(=O)C(C)Cl)CC2)n1 (centres unmarked) [7-B15, 2-chloro-1-[4-(3-ethyl-1,2,4-thiadiazol-5-yl)-1,4-diazepan-1-yl]propan-1-one] | 84.3
20 | O=C(CCl)N(Cc1nc(C2CCCCCC2)no1)C1CC1 [7-B16, 2-chloro-N-[(3-cycloheptyl-1,2,4-oxadiazol-5-yl)methyl]-N-cyclopropylacetamide] | 0.667
21 | CC(Cl)C(=O)N1CCOCC1c1nc(-c2cccs2)no1 (centres unmarked) [7-B17, 2-chloro-1-{3-[3-(thiophen-2-yl)-1,2,4-oxadiazol-5-yl]morpholin-4-yl}propan-1-one] | 75.7
22 | C=C(Cl)CN(C(=O)CCl)C1CCc2ccccc21 (centres unmarked) [7-B18, 2-chloro-N-(2-chloroprop-2-en-1-yl)-N-(2,3-dihydro-1H-inden-1-yl)acetamide] | 0.322
23 | CC(Cl)C(=O)NC(C)c1nc(Cc2ccccc2)no1 (centres unmarked) [7-B19, N-[1-(3-benzyl-1,2,4-oxadiazol-5-yl)ethyl]-2-chloropropanamide] | 79.9
24 | Cc1cc(CN(C(=O)CCl)C2CCCC2)c2ccccc2n1 [7-B20, 2-chloro-N-cyclopentyl-N-[(2-methylquinolin-4-yl)methyl]acetamide] | 0.493
25 | CC(Cl)C(=O)N(C)Cc1cc(C(C)(C)C)[nH]n1 (centres unmarked) [7-B21, N-[(5-tert-butyl-1H-pyrazol-3-yl)methyl]-2-chloro-N-methylpropanamide] | 80.5

Row | Compound | viability at 48 h, 25 µM [%]
26 | O=C(CCl)NC(c1ccc(F)c(C(F)(F)F)c1)C1CC1 (centres unmarked) [7-B22, 2-chloro-N-{cyclopropyl[4-fluoro-3-(trifluoromethyl)phenyl]methyl}acetamide] | 0.631
27 | CC(Cl)C(=O)NCC1CN(S(C)(=O)=O)C1 (centres unmarked) [7-C04, 2-chloro-N-[(1-methanesulfonylazetidin-3-yl)methyl]propanamide] | 118
28 | CC(Cl)C(=O)N1CCCCCC1c1noc(-c2cnn(C)c2)n1 (centres unmarked) [7-C05, 2-chloro-1-{2-[5-(1-methyl-1H-pyrazol-4-yl)-1,2,4-oxadiazol-3-yl]azepan-1-yl}propan-1-one] | 92.8
29 | CC(Cl)C(=O)N1CCc2ncsc2C1 (centres unmarked) [7-C06, 2-chloro-1-{4H,5H,6H,7H-[1,3]thiazolo[5,4-c]pyridin-5-yl}propan-1-one] | 92.6
30 | CC(Cl)C(=O)N1CCC(N(CC(F)(F)F)S(C)(=O)=O)CC1 (centres unmarked) [7-C07, N-[1-(2-chloropropanoyl)piperidin-4-yl]-N-(2,2,2-trifluoroethyl)methanesulfonamide] | 94.8
31 | CC(Cl)C(=O)N1CCOCC1c1ncnn1Cc1ccccc1 (centres unmarked) [7-C08, 1-[3-(1-benzyl-1H-1,2,4-triazol-5-yl)morpholin-4-yl]-2-chloropropan-1-one] | 95.7
32 | CC(Cl)C(=O)N1C2C=C(c3ccccc3)CC1CC2 (centres unmarked) [7-C09, 2-chloro-1-{3-phenyl-8-azabicyclo[3.2.1]oct-2-en-8-yl}propan-1-one] | 81.3
33 | CC(Cl)C(=O)N(C)Cc1ncnn1CC(F)F (centres unmarked) [7-C10, 2-chloro-N-{[1-(2,2-difluoroethyl)-1H-1,2,4-triazol-5-yl]methyl}-N-methylpropanamide] | 97.8
34 | CC(Cl)C(=O)NCc1csc2ccccc12 (centres unmarked) [7-C11, N-[(1-benzothiophen-3-yl)methyl]-2-chloropropanamide] | 81.9
35 | CC(Cl)C(=O)NCCc1c[nH]c2ncccc12 (centres unmarked) [7-C12, 2-chloro-N-(2-{1H-pyrrolo[2,3-b]pyridin-3-yl}ethyl)propanamide] | 88.4
36 | CC(Cl)C(=O)N1CCCC(NS(=O)(=O)c2cccc(F)c2)C1 (centres unmarked) [7-C13, N-[1-(2-chloropropanoyl)piperidin-3-yl]-3-fluorobenzene-1-sulfonamide] | 79.3
37 | COc1ccc(N(C)C(=O)C(C)Cl)cc1Cl (centres unmarked) [7-C14, 2-chloro-N-(3-chloro-4-methoxyphenyl)-N-methylpropanamide] | 80.4
38 | CC(Cl)C(=O)N1CCCc2ccc(N(C)C)cc2C1 (centres unmarked) [7-C15, 2-chloro-1-[8-(dimethylamino)-2,3,4,5-tetrahydro-1H-2-benzazepin-2-yl]propan-1-one] | 82.1
39 | CC(Cl)C(=O)N(C)C1CCN(c2ccccc2Cl)C1=O (centres unmarked) [7-C16, 2-chloro-N-[1-(2-chlorophenyl)-2-oxopyrrolidin-3-yl]-N-methylpropanamide] | 77.8
40 | CC(Cl)C(=O)NC1CCN(c2ccccc2C(F)(F)F)C1 (centres unmarked) [7-C17, 2-chloro-N-{1-[2-(trifluoromethyl)phenyl]pyrrolidin-3-yl}propanamide] | 67.5
41 | Cc1ncccc1OCC1CCCN1C(=O)C(C)Cl (centres unmarked) [7-C18, 2-chloro-1-(2-{[(2-methylpyridin-3-yl)oxy]methyl}pyrrolidin-1-yl)propan-1-one] | 76.6
42 | CC(Cl)C(=O)NC(c1ccc(F)cc1)c1cnn(C)c1 (centres unmarked) [7-C19, 2-chloro-N-[(4-fluorophenyl)(1-methyl-1H-pyrazol-4-yl)methyl]propanamide] | 93.1
43 | CCc1cnc(N2CCN(C(=O)C(C)Cl)CC2)s1 (centres unmarked) [7-C20, 2-chloro-1-[4-(5-ethyl-1,3-thiazol-2-yl)piperazin-1-yl]propan-1-one] | 79.5
44 | CC(Cl)C(=O)NC1CCCN(c2ncccn2)C1 (centres unmarked) [7-C21, 2-chloro-N-[1-(pyrimidin-2-yl)piperidin-3-yl]propanamide] | 93.1
45 | CC(Cl)C(=O)N1CCN(CC(F)(F)F)CC1C(C)C (centres unmarked) [7-C22, 2-chloro-1-[2-(propan-2-yl)-4-(2,2,2-trifluoroethyl)piperazin-1-yl]propan-1-one] | 91.5
46 | CCC(NC(=O)CCl)c1c(C)noc1C (centres unmarked) [7-D03, 2-chloro-N-[1-(3,5-dimethyl-1,2-oxazol-4-yl)propyl]acetamide] | 104
47 | CN1C(=O)[C@H](NC(=O)CCl)COc2ccccc21 [7-D04, 2-chloro-N-[(3R)-5-methyl-4-oxo-2,3,4,5-tetrahydro-1,5-benzoxazepin-3-yl]acetamide] | 2.02
48 | O=C(CCl)NCc1cn[nH]c1C(F)F [7-D05, 2-chloro-N-{[5-(difluoromethyl)-1H-pyrazol-4-yl]methyl}acetamide] | 0.404
49 | N#Cc1cccc2c1CC[C@H]2NC(=O)CCl [7-D06, 2-chloro-N-[(1R)-4-cyano-2,3-dihydro-1H-inden-1-yl]acetamide] | 0.673
50 | CC(Cl)C(=O)NC1CCN(Cc2cscn2)CC1 (centres unmarked) [7-D07, 2-chloro-N-{1-[(1,3-thiazol-4-yl)methyl]piperidin-4-yl}propanamide] | 111
